# Read-outs that look alike come from different tables or passages of the source.
# How the values were obtained:
# Type in all cases: cell-based
# hGIPR = target: T1, hGIPR (Homo sapiens, UniProt P48546); test: Functional cAMP formation (HTRF) in HEK-293 clonal cells expressing hGIPR, 0.1% bovine casein, without or with 1.0% human serum albumin; settings: for Emax: percent of maximal response to GIP(1-42)NH2; for EC50: cAMP, 0.1% bovine casein (no human serum albumin), geometric mean
# T1 construct: expressed in transfected cells
# T1 sequence (P48546 22-466): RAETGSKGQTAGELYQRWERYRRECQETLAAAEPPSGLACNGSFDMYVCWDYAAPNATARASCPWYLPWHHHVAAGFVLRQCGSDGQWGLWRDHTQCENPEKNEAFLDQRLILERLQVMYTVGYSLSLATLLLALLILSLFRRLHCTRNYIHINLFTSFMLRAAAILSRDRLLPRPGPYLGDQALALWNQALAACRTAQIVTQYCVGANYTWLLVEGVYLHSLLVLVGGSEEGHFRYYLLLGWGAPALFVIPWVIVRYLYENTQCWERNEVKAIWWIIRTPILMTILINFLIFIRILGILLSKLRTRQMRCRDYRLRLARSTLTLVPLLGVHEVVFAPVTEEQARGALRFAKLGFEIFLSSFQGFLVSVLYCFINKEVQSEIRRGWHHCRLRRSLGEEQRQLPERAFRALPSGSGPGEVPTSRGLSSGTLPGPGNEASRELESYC
# Method in brief: (§1)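 Readings of the HTRF 665/620 nm ratio, which falls as cAMP rises, were converted to nM cAMP using a standard curve after 30 min peptide exposure at 37° C.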
# hGCGR = target: T2, hGCGR (Homo sapiens, UniProt P47871); test: Functional cAMP formation (HTRF) in HEK-293 clonal cells expressing hGCGR, 0.1% bovine casein, without or with 1.0% human serum albumin; settings: cAMP, 37° C.
# T2 construct: expressed in transfected cells
# T2 sequence (P47871 26-477): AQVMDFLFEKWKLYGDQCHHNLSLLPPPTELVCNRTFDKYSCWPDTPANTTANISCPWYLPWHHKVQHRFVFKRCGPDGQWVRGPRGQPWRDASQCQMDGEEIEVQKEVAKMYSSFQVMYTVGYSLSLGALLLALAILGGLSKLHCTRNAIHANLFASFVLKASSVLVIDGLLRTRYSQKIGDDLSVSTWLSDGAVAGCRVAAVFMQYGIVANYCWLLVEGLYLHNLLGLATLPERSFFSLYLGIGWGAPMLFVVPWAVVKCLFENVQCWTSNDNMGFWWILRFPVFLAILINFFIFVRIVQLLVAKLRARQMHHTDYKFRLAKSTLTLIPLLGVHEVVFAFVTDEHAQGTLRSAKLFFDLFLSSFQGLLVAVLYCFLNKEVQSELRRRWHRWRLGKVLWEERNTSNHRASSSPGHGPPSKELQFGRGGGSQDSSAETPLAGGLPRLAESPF
# Method in brief: as §1
# hGLP-1R = hGLP-1R (Homo sapiens, UniProt P43220); test: Functional cAMP formation (HTRF) in HEK-293 clonal cells expressing hGLP-1R, 0.1% bovine casein, without or with 1.0% human serum albumin; set-up: expressed in transfected cells; settings: for Emax: percent of maximal response to GLP-1(7-36)NH2; for EC50: cAMP, 0.1% bovine casein (no human serum albumin), geometric mean
# Sequence of hGLP-1R (P43220 24-463): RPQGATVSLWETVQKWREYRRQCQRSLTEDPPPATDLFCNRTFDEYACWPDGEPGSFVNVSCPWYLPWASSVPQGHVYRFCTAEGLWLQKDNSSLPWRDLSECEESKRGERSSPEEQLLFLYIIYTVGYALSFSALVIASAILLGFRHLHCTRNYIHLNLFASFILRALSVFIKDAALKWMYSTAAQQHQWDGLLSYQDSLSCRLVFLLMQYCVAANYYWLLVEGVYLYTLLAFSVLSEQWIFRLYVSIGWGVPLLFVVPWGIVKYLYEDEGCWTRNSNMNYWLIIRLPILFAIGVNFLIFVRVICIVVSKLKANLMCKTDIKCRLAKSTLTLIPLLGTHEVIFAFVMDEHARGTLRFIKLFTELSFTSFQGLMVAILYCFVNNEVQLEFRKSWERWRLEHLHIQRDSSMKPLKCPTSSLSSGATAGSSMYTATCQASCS
# Method in brief: as §1
compound,measurement,setting,value
CC[C@H](C)[C@H](NC(=O)[C@H](CCCN)NC(=O)[C@H](CC(=O)O)NC(=O)[C@H](CC(C)C)NC(=O)[C@](C)(CC(C)C)NC(=O)[C@@H](NC(=O)C(C)(C)NC(=O)[C@@H](NC(=O)[C@H](CC(=O)O)NC(=O)[C@H](CO)NC(=O)[C@@H](NC(=O)[C@](C)(Cc1ccccc1F)NC(=O)[C@@H](NC(=O)CNC(=O)[C@H](CCC(=O)O)NC(=O)C(C)(C)NC(=O)[C@@H](N)Cc1ccc(O)cc1)[C@@H](C)O)[C@@H](C)O)C(C)C)[C@@H](C)CC)C(=O)N[C@@H](C)C(=O)N[C@@H](CCC(N)=O)C(=O)NC(C)(C)C(=O)N[C@@H](CCCCNC(=O)COCCOCCNC(=O)CC[C@H](NC(=O)CCCCCCCCCOc1ccc(C(=O)O)cc1)C(=O)O)C(=O)N[C@@H](Cc1ccccc1)C(=O)N[C@H](C(=O)N[C@H](CCC(=O)O)C(=O)N[C@@](C)(Cc1ccc(O)cc1)C(=O)N[C@@H](CC(C)C)C(=O)N[C@H](C(=O)N[C@@H](CCCCNC(=O)COCCOCCNC(=O)CC[C@H](NC(=O)CCCCCCCCCOc1ccc(C(=O)O)cc1)C(=O)O)C(=O)NCC(=O)NCC(=O)N1CCC[C@H]1C(=O)N[C@@H](CO)C(=O)N[C@@H](CO)C(=O)NCC(=O)N[C@@H](C)C(=O)N1CCC[C@H]1C(=O)N1CCC[C@H]1C(=O)N1CCC[C@H]1C(=O)N[C@@H](CO)C(N)=O)[C@@H](C)CC)[C@@H](C)CC [Example 382],Emax,"hGIPR; HEK293, read-out: hGIPR Emax, % ± SEM, cAMP, 37° C., 0.1% bovine casein and 1.0% human serum albumin",87.2%
same,Emax,"hGIPR; HEK293, read-out: hGIPR Emax, % ± SEM, cAMP, 37° C., 0.1% bovine casein, arithmetic mean",97.6%
same,EC50,"hGIPR; hGIPR EC50, nM (SEM, n), 37° C.",0.0302 nM
same,EC50,"hGCGR; hGCGR EC50, nM (SEM, n), 0.1% bovine casein (no human serum albumin), geometric mean",> 9950 nM
same,EC50,"hGCGR; hGCGR EC50, nM (SEM, n), 0.1% bovine casein and 1.0% human serum albumin, geometric mean (SEM, n)",> 9950 nM
same,Emax,"hGLP-1R; HEK293, read-out: hGLP-1R Emax, % ± SEM, cAMP, 37° C., 0.1% bovine casein and 1.0% human serum albumin",118%
same,EC50,"hGLP-1R; hGLP-1R EC50, nM (SEM, n), 37° C.",0.619 nM
CC[C@H](C)[C@H](NC(=O)[C@H](CC(C)C)NC(=O)[C@](C)(Cc1ccc(O)cc1)NC(=O)[C@@H](CCC(=O)O)NC(=O)[C@@H](NC(=O)[C@H](Cc1ccccc1)NC(=O)[C@H](CCCCNC(=O)CCOCCOCCOCCOCCNC(=O)CC[C@H](NC(=O)CCCCCCCCCCCCC(=O)O)C(=O)O)NC(=O)C(C)(C)NC(=O)[C@H](CCC(N)=O)NC(=O)[C@H](C)NC(=O)[C@H](CCCCNC(=O)CCOCCOCCOCCOCCNC(=O)CC[C@H](NC(=O)CCCCCCCCCCCCC(=O)O)C(=O)O)NC(=O)[C@H](CCCN)NC(=O)[C@H](CC(=O)O)NC(=O)[C@H](CC(C)C)NC(=O)[C@](C)(CC(C)C)NC(=O)[C@@H](NC(=O)C(C)(C)NC(=O)[C@H](Cc1ccncc1)NC(=O)[C@H](CC(=O)O)NC(=O)[C@H](CO)NC(=O)[C@@H](NC(=O)[C@](C)(Cc1ccccc1F)NC(=O)[C@@H](NC(=O)CNC(=O)[C@H](CCC(=O)O)NC(=O)C(C)(C)NC(=O)[C@@H](N)Cc1ccc(O)cc1)[C@@H](C)O)[C@@H](C)O)[C@@H](C)CC)[C@@H](C)CC)C(=O)N[C@@H](CCC(=O)O)C(=O)NCC(=O)NCC(=O)N1CCC[C@H]1C(=O)N[C@@H](CO)C(=O)N[C@@H](CO)C(=O)NCC(=O)N[C@@H](C)C(=O)N1CCC[C@H]1C(=O)N1CCC[C@H]1C(=O)N1CCC[C@H]1C(=O)N[C@@H](CO)C(N)=O [Example 405],Emax,"hGIPR; HEK293, cAMP, 37° C., 0.1% bovine casein and 1.0% human serum albumin, read-out: hGIPR Emax, % ± SEM",74.3%
same,Emax,"hGIPR; HEK293, cAMP, 37° C., 0.1% bovine casein, arithmetic mean, read-out: hGIPR Emax, % ± SEM",100%
same,EC50,"hGIPR; 37° C., read-out: hGIPR EC50, nM (SEM, n)",0.0209 nM
same,EC50,"hGCGR; 0.1% bovine casein (no human serum albumin), geometric mean, read-out: hGCGR EC50, nM (SEM, n)",> 9950 nM
same,EC50,"hGCGR; 0.1% bovine casein and 1.0% human serum albumin, geometric mean (SEM, n), read-out: hGCGR EC50, nM (SEM, n)",> 9950 nM
same,Emax,"hGLP-1R; HEK293, cAMP, 37° C., 0.1% bovine casein and 1.0% human serum albumin, read-out: hGLP-1R Emax, % ± SEM",78.1%
same,Emax,"hGLP-1R; HEK293, cAMP, 37° C., 0.1% bovine casein, arithmetic mean, read-out: hGLP-1R Emax, % ± SEM",93.3%
same,EC50,"hGLP-1R; 37° C., read-out: hGLP-1R EC50, nM (SEM, n)",1.26 nM

# From patent US20230265151A1, “GIP/GLP1 CO-AGONIST COMPOUNDS” (priority 2020, published 2023)
